Reference: article PMC12324462 (bioRxiv, 2025)

Biological target: CDK9 (Homo sapiens, UniProt P50750)
Experiment: in vitro kinase assay
Format: biochemical

CDK9, sequence (P50750 whole entry): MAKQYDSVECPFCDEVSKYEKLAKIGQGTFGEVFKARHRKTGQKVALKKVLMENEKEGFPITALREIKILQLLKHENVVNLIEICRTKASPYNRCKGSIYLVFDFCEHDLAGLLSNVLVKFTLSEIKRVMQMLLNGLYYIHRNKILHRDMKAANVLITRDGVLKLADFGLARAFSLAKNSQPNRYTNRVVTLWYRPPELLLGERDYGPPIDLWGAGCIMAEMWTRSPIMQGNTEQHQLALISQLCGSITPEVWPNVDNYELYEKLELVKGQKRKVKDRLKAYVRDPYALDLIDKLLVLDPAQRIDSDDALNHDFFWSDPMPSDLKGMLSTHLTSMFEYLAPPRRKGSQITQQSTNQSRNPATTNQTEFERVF

IC50: 650 nM
SMILES: Cc1cc(O)c(-c2ccc([C@@H](C)CN(C)C)cc2)c2c1[nH]c(=O)c1sccc12 [OTS964]
